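Each compound was tested at five concentrations against cells in 96-well plates for 48 hours. Here, GI50 denotes the concentration required for 50% inhibition of growth. The concentration for full growth arrest is given as TGI.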
Experiments:
Test in all cases: NCI tumour cell line growth inhibition, 48 h
TK-10 renal = test system: TK-10 renal
T-47D breast = test system: T-47D breast
BT-549 breast = test system: BT-549 breast
HCT-116 colon = test system: HCT-116 colon
NCI-H522 lung = test system: NCI-H522 lung
RPMI-8226 leukemia = test system: RPMI-8226 leukemia
ACHN renal = test system: ACHN renal
EKVX NSCLC = test system: EKVX NSCLC
MALME-3M melanoma = test system: MALME-3M melanoma
CAKI-1 renal = test system: CAKI-1 renal
HT29 colon = test system: HT29 colon
HCC-2998 colon = test system: HCC-2998 colon
M14 melanoma = test system: M14 melanoma
NCI-H226 lung = test system: NCI-H226 lung
HS 578T breast = test system: HS 578T breast
COLO 205 colon = test system: COLO 205 colon
KM12 colon = test system: KM12 colon
NCI/ADR-RES ovarian = test system: NCI/ADR-RES ovarian
SR leukemia = test system: SR leukemia
SK-OV-3 ovarian = test system: SK-OV-3 ovarian
A549 NSCLC = test system: A549 NSCLC
OVCAR-3 ovarian = test system: OVCAR-3 ovarian
IGROV1 ovarian = test system: IGROV1 ovarian
786-0 renal = test system: 786-0 renal
HCT-15 colon = test system: HCT-15 colon
DU-145 prostate = test system: DU-145 prostate
OVCAR-4 ovarian = test system: OVCAR-4 ovarian
SNB-19 CNS = test system: SNB-19 CNS
A498 renal = test system: A498 renal
RXF 393 renal = test system: RXF 393 renal
SF-539 CNS = test system: SF-539 CNS
SK-MEL-5 melanoma = test system: SK-MEL-5 melanoma
NCI-H460 lung = test system: NCI-H460 lung
SF-295 CNS = test system: SF-295 CNS
U251 CNS = test system: U251 CNS
HOP-92 NSCLC = test system: HOP-92 NSCLC
SN12C renal = test system: SN12C renal
SW-620 colon = test system: SW-620 colon
LOX IMVI melanoma = test system: LOX IMVI melanoma
UACC-257 melanoma = test system: UACC-257 melanoma
PC-3 prostate = test system: PC-3 prostate
CCRF-CEM leukemia = test system: CCRF-CEM leukemia
MDA-MB-435 = test system: MDA-MB-435
UO-31 renal = test system: UO-31 renal
SK-MEL-2 melanoma = test system: SK-MEL-2 melanoma
MDA-MB-231 breast = test system: MDA-MB-231 breast
K-562 leukemia = test system: K-562 leukemia
SK-MEL-28 melanoma = test system: SK-MEL-28 melanoma
NCI-H23 lung = test system: NCI-H23 lung
OVCAR-8 ovarian = test system: OVCAR-8 ovarian
MCF7 breast = test system: MCF7 breast
UACC-62 melanoma = test system: UACC-62 melanoma
OVCAR-5 ovarian = test system: OVCAR-5 ovarian
HL-60(TB) leukemia = test system: HL-60(TB) leukemia
MOLT-4 leukemia = test system: MOLT-4 leukemia
SF-268 CNS = test system: SF-268 CNS
HOP-62 NSCLC = test system: HOP-62 NSCLC
SNB-75 CNS = test system: SNB-75 CNS

## COc1ccc2c(c1)C(=Nc1ccc(F)c(F)c1F)c1c-2c(Nc2ccc(F)c(F)c2F)nc2ccccc12
TK-10 renal
  GI50: 25.4 µM
  TGI: > 90.9 µM
T-47D breast
  GI50: > 100 µM
  TGI: > 100 µM
BT-549 breast
  GI50: 36 µM
  TGI: > 65.4 µM
HCT-116 colon
  GI50: 31.8 µM
  TGI: > 100 µM
NCI-H522 lung
  GI50: 59.8 µM
  TGI: > 100 µM
RPMI-8226 leukemia
  GI50: 42.7 µM
  TGI: > 100 µM
ACHN renal
  GI50: 41.2 µM
  TGI: > 100 µM
EKVX NSCLC
  GI50: > 79.5 µM
  TGI: > 100 µM
MALME-3M melanoma
  GI50: 50.6 µM
  TGI: > 100 µM
CAKI-1 renal
  GI50: > 57.2 µM
  TGI: > 100 µM
HT29 colon
  GI50: 36.6 µM
  TGI: > 100 µM
HCC-2998 colon
  GI50: > 100 µM
  TGI: > 100 µM
M14 melanoma
  GI50: 27.7 µM
  TGI: > 100 µM
NCI-H226 lung
  GI50: > 44.4 µM
  TGI: > 84.1 µM
HS 578T breast
  GI50: 22 µM
  TGI: > 100 µM
COLO 205 colon
  GI50: 38.8 µM
  TGI: > 100 µM
KM12 colon
  GI50: > 71.1 µM
  TGI: > 100 µM
NCI/ADR-RES ovarian
  GI50: 37.4 µM
  TGI: > 82.8 µM
SR leukemia
  TGI: 1.41 µM
SK-OV-3 ovarian
  GI50: 16.3 µM
  TGI: 61.7 µM
A549 NSCLC
  GI50: > 59.3 µM
  TGI: > 100 µM
OVCAR-3 ovarian
  GI50: 46.6 µM
  TGI: > 89.1 µM
IGROV1 ovarian
  GI50: 15.9 µM
  TGI: > 72.9 µM
786-0 renal
  GI50: 27.3 µM
  TGI: > 68.7 µM
HCT-15 colon
  GI50: 49 µM
  TGI: > 100 µM
DU-145 prostate
  GI50: 49.8 µM
  TGI: > 100 µM
OVCAR-4 ovarian
  GI50: 27.8 µM
  TGI: > 55.6 µM
SNB-19 CNS
  GI50: 33.1 µM
  TGI: > 100 µM
A498 renal
  GI50: 17.2 µM
  TGI: 53.7 µM
RXF 393 renal
  GI50: 17.2 µM
  TGI: 56.5 µM
SF-539 CNS
  GI50: 37.7 µM
  TGI: > 83.6 µM
SK-MEL-5 melanoma
  GI50: > 74.4 µM
  TGI: > 100 µM
NCI-H460 lung
  GI50: > 75.5 µM
  TGI: > 100 µM
SF-295 CNS
  GI50: 41.3 µM
  TGI: > 100 µM
U251 CNS
  GI50: 28.2 µM
  TGI: > 64.3 µM
HOP-92 NSCLC
  GI50: 48 µM
  TGI: > 100 µM
SN12C renal
  GI50: > 58.6 µM
  TGI: > 100 µM
SW-620 colon
  GI50: > 59.3 µM
  TGI: > 100 µM
LOX IMVI melanoma
  GI50: > 60.5 µM
  TGI: > 100 µM
UACC-257 melanoma
  GI50: > 100 µM
  TGI: > 100 µM
PC-3 prostate
  GI50: > 56.7 µM
  TGI: > 100 µM
CCRF-CEM leukemia
  GI50: 46.3 µM
  TGI: > 100 µM
MDA-MB-435
  GI50: > 70.7 µM
  TGI: > 100 µM
UO-31 renal
  GI50: > 89.3 µM
  TGI: > 100 µM
SK-MEL-2 melanoma
  GI50: 23.8 µM
  TGI: > 100 µM
MDA-MB-231 breast
  GI50: 26.6 µM
  TGI: > 60.1 µM
K-562 leukemia
  GI50: 29.5 µM
  TGI: > 100 µM
SK-MEL-28 melanoma
  GI50: 28 µM
  TGI: > 100 µM
NCI-H23 lung
  GI50: > 36.1 µM
  TGI: > 62.2 µM
OVCAR-8 ovarian
  GI50: 35.9 µM
  TGI: > 78.6 µM
MCF7 breast
  GI50: 44 µM
  TGI: > 100 µM
UACC-62 melanoma
  GI50: 23.8 µM
  TGI: > 55.1 µM
OVCAR-5 ovarian
  GI50: > 46.6 µM
  TGI: > 100 µM
HL-60(TB) leukemia
  TGI: 0.0392 µM
MOLT-4 leukemia
  GI50: 24.2 µM
  TGI: > 100 µM
SF-268 CNS
  GI50: 36.8 µM
  TGI: > 100 µM
HOP-62 NSCLC
  GI50: 14.6 µM
  TGI: 43.7 µM

## COc1cccc(CNCCN2C(=O)c3ccc4c5c(ccc(c35)C2=O)C(=O)N(CCNCc2cccc(OC)c2)C4=O)c1
TK-10 renal
  GI50: 1.85 µM
  TGI: 4.31 µM
T-47D breast
  GI50: 2.05 µM
  TGI: 5.3 µM
BT-549 breast
  GI50: 2.43 µM
  TGI: 6.12 µM
NCI-H522 lung
  GI50: 1.81 µM
  TGI: 3.46 µM
RPMI-8226 leukemia
  GI50: 2.84 µM
  TGI: 7.45 µM
ACHN renal
  GI50: 6.28 µM
  TGI: 27.5 µM
EKVX NSCLC
  GI50: 15.7 µM
  TGI: 35.4 µM
MALME-3M melanoma
  GI50: 1.8 µM
  TGI: 3.76 µM
CAKI-1 renal
  GI50: 2.61 µM
  TGI: 8.27 µM
HCC-2998 colon
  GI50: 5.21 µM
  TGI: 19.1 µM
NCI-H226 lung
  GI50: 34 µM
  TGI: > 100 µM
HS 578T breast
  GI50: 19 µM
  TGI: 52.8 µM
COLO 205 colon
  GI50: 1.53 µM
  TGI: 2.95 µM
KM12 colon
  GI50: 1.75 µM
  TGI: 3.93 µM
NCI/ADR-RES ovarian
  GI50: 2.99 µM
  TGI: > 100 µM
SR leukemia
  GI50: 0.332 µM
  TGI: 2.57 µM
SK-OV-3 ovarian
  GI50: 19.1 µM
  TGI: 35.5 µM
A549 NSCLC
  GI50: 2.49 µM
  TGI: 5.83 µM
OVCAR-3 ovarian
  GI50: 2.25 µM
  TGI: 5.93 µM
IGROV1 ovarian
  GI50: 2.36 µM
  TGI: 6.34 µM
SNB-75 CNS
  GI50: 11.2 µM
  TGI: 28 µM
HCT-15 colon
  GI50: 2.1 µM
  TGI: 4.82 µM
DU-145 prostate
  GI50: 3.94 µM
  TGI: 14.9 µM
OVCAR-4 ovarian
  GI50: 1.4 µM
  TGI: 2.71 µM
SNB-19 CNS
  GI50: 2.88 µM
  TGI: 10.4 µM
A498 renal
  GI50: 14.8 µM
  TGI: 28.9 µM
RXF 393 renal
  GI50: 2.16 µM
  TGI: 7.58 µM
SF-539 CNS
  GI50: 1.79 µM
  TGI: 3.4 µM
SK-MEL-5 melanoma
  GI50: 1.52 µM
  TGI: 2.86 µM
NCI-H460 lung
  GI50: 1.96 µM
  TGI: 4.33 µM
SF-295 CNS
  GI50: 1.82 µM
  TGI: 3.88 µM
U251 CNS
  GI50: 2.42 µM
  TGI: 5.16 µM
HOP-92 NSCLC
  GI50: 18.9 µM
  TGI: 41.2 µM
SN12C renal
  GI50: 1.67 µM
  TGI: 3.24 µM
SW-620 colon
  GI50: 2.15 µM
  TGI: 5.32 µM
LOX IMVI melanoma
  GI50: 1.79 µM
  TGI: 3.53 µM
UACC-257 melanoma
  GI50: 2.09 µM
  TGI: 3.82 µM
PC-3 prostate
  GI50: 3.87 µM
  TGI: 21.6 µM
CCRF-CEM leukemia
  GI50: 3.46 µM
  TGI: 13.5 µM
MDA-MB-435
  GI50: 1.84 µM
  TGI: 3.48 µM
SK-MEL-2 melanoma
  GI50: 1.89 µM
  TGI: 3.85 µM
MDA-MB-231 breast
  GI50: 2.39 µM
  TGI: 6.61 µM
K-562 leukemia
  GI50: 3.03 µM
  TGI: 8.52 µM
SK-MEL-28 melanoma
  GI50: 2.22 µM
  TGI: 5.2 µM
OVCAR-8 ovarian
  GI50: 2.15 µM
  TGI: 4.85 µM
MCF7 breast
  GI50: 1.81 µM
  TGI: 4.39 µM
UACC-62 melanoma
  GI50: 1.9 µM
  TGI: 4 µM
OVCAR-5 ovarian
  GI50: 21.1 µM
  TGI: 49.6 µM
HL-60(TB) leukemia
  GI50: 2.56 µM
  TGI: 4.99 µM
MOLT-4 leukemia
  GI50: 14.7 µM
  TGI: 47.9 µM
SF-268 CNS
  GI50: 4.09 µM
  TGI: 27 µM
HOP-62 NSCLC
  GI50: 15 µM
  TGI: 30.8 µM

Reference: PubChem BioAssay (NCI)
